# Laboratory results reported in patent US7935485B2, “Genetic polymorphisms for identifying individuals at risk for drug-induced vestibular dysfunction” (University of Maryland College Park, priority 2007, dated 2011).
# “Also recorded” adds a separate entry of the source.
# How the values were obtained:
# vestibular hair cell = conditions: by inhibiting NO and ROS production; cited from earlier work
# [1] = Case/control study, subject characteristics of cases with GM-induced vestibular dysfunction; format: in vivo, human; conditions: attributed to GM therapy
# Experimental: Subjects: Subjects were recruited for participation in a case/control study. Cases were recruited from various vestibular dysfunction support groups through advertisements and direct mailings. Cases were included if they could document profound unilateral or bilateral vestibular loss due specifically to GM administration after the age of 18 yr. […] Normal vestibular function was determined with the use of a clinical balance function questionnaire and medical history information. There are no apparent sex or racial differences in susceptibility to GM-induced vestibular dysfunction, so no inclusion limitations were made on those parameters, although the vast majority of recruited subjects were white. Because allele frequencies for many polymorphisms differ by race and only 10 non-white subjects completed the study, all results are presented for the 263 white participants. Children have higher risk for GM-induced ototoxicity, so only individuals >18 yr. and who were >18 yr. at the time of GM therapy were included. All subjects provided written informed consent and all procedures were approved by the University of Maryland Institutional Review Board.
# Procedures: Potential subjects completed medical history and balance function questionnaires, and patients specifically provided medical record release authorizations. […]
# [2] = in vivo; cited from earlier work
# [3] = cited from earlier work
# [4] = provided simultaneously with GM; cited from earlier work
molecule,measurement,setting,value
O[C@@H]1CO[C@H]2[C@@H]1OC[C@@H]2O [isosorbide],effect on GM-induced vestibular hair cell death,vestibular hair cell,delay GM-induced vestibular hair cell death
gentamicin [GM],"Hearing complications, (%)",[1],(34%)
same,"Renal complications, (%)",[1],(14%)
same,metabolism,[2],"not metabolized, but simply excreted by the kidney; also recorded: not metabolized by the body"
same,vestibular dysfunction,"[3]; GM-treated patients (33), different patients than those with auditory dysfunction",three
same,auditory dysfunction,"[3]; GM-treated patients, number affected of 33",three of 33
"BDNF: brain-derived neurotrophic factor, a neurotrophic factor (protein, UniProt P23560 19-247, looked up) Neurotrophic factor BDNF …: APMKEANIRGQGGLAYPGVRTHGTLESVNGPKAGSRGLTSLADTFEHVIEELLDEDQKVRPNEENNKDADLYTSRVMLSSQVPLEPPLLFLLEEYKNYLDAANMSMRVRRHSDPARRGELSVCDSISEWVTAADKKTAVDMSGGTVTVLEKVPVSKGQLKQYFYETKCNPMGYTKEGCRGIDKRHWNSQCRTTQSYVRALTMDSKKRIGWRFIRIDTSCVCTLTIKRGR",effect on ototoxic damage,[4],limits ototoxic damage
